The values that follow come from patent US7985771B2, “Furanone derivatives” (Monsanto Technology LLC, priority 2002, dated 2011).

The experiment concerns ELAM (E-selectin) expression in endothelial cells. The experiment in a line: E-selectin (ELAM) cell inflammation assay. The class given is cell-based. To be noted: LPS and IL-1β stimulation, read-out: reduction of expression of ELAM, EC50. How it is done:
Endothelial-Leukocyte Adhesion Molecule (ELAM), also known as E-selectin, is expressed on the surface of endothelial cells. In this assay, lipopolysaccharide (LPS) and IL-1β are used to stimulate the expression of ELAM; test agents are tested for their abilities to reduce this expression, in accordance with studies showing that reduction of leukocyte adhesion to endothelial cell surface is associated with decreased cellular damage (e.g., Takada, M., Et al., Transplantation 64: 1520-25, 1997; Steinberg, J. B., et al., J. Heart Lung Trans. 13:306-313, 1994).
Endothelial cells may be selected from any of a number of sources and cultured according to methods known in the art; including, for example, coronary artery endothelial cells, human brain microvascular endothelial cells (HBMEC; Hess, D.C., et al., Neurosci. Left. 213(1): 37-40, 1996), or lung endothelial cells. Cells are conveniently cultured in 96-well plates. Cells are stimulated by adding a solution to each well containing 10 μg/ml LPS and 100 pg/ml IL-1β for 6 hours in the presence of test agent (specific concentrations and time may be adjusted depending on the cell type). Treatment buffer is removed and replaced with pre-warmed Fixing Solution® (100 μl/well) for 25 minutes at room temperature. Cells are then washed 3×, then incubated with Blocking Buffer (PBS+2% FBS) for 25 minutes at room temperature. Blocking Buffer containing Monoclonal E-Selectin Antibody (1:750, Sigma Catalog #S-9555) is added to each well. Plates are sealed and stored at 4° overnight. Plates are washed 4× with 160 μL Blocking Buffer per well. Second Antibody-HRP diluted 1:5000 in Blocking Buffer is then added (100 μL/well), and plates are incubated at room temperature (protected from light) for two hours. Plates are then washed 4× with Blocking Buffer before addition of 100 μL of ABTS Substrate solution at room temperature (Zymed, Catalog #00-2024). Wells are allowed to develop for 35 minutes, before measurement at 402 nm in a Fluoroskan® Reader with shake program for 10 seconds. Positive results are recorded as a decrease in ELAM concentration in tested wells, as compared to control wells.
Take `CCOC(=O)C1(C[S+]([O-])Cc2ccco2)OC(=O)C(O)=C1S(=O)(=O)Cc1ccco1` (stereo not drawn) [2-(Furan-2-ylmethanesulfinylmethyl)-3-(furan-2-ylmethanesulfonyl)-4-hydroxy-5-oxo-2,5-dihydro-furan-2-carboxylic acid ethyl ester]: the EC50 – broadly, the concentration at which the effect is half-maximal – was no more than 30 µM.
Consider `CCOC(=O)C1OC(=O)C(O)=C1Sc1nc2ccccc2[nH]1` (stereo not drawn) [3-(1H-Benzoimidazol-2-ylsulfanyl)-4-hydroxy-5-oxo-2,5-dihydro-furan-2-carboxylic acid ethyl ester], for which the EC50 is no more than 30 µM.
Turning to `CCOC(=O)C1(CSc2ccccc2Cl)OC(=O)C(O)=C1Sc1ccccc1Cl` (stereo not drawn) [3-(2-Chloro-phenylsulfanyl)-2-(2-chloro-phenylsulfanylmethyl)-4-hydroxy-5-oxo-2,5-dihydro-furan-2-carboxylic acid ethyl ester], the EC50 is no more than 30 µM.
Next, `CN(C)CCSCC1(C(=O)O)OC(=O)C(O)=C1SCCN(C)C` (stereo not drawn) [3-(2-Dimethylamino-ethylsulfanyl)-2-(2-dimethylamino-ethylsulfanylmethyl)-4-hydroxy-5-oxo-2,5-dihydro-furan-2-carboxylic acid]: no more than 30 µM.
Turning to `CCOC(=O)C1(CSc2nc3cc(Cl)c(Cl)cc3[nH]2)OC(=O)C(O)=C1Sc1nc2cc(Cl)c(Cl)cc2[nH]1` (stereo not drawn) [3-(5,6-Dichloro-1H-benzoimidazol-2-ylsulfanyl)-2-(5,6-dichloro-1H-benzoimidazol-2-ylsulfanylmethyl)-4-hydroxy-5-oxo-2,5-dihydro-furan-2-carboxylic acid ethyl ester], the EC50 is no more than 30 µM.
Next, `CCOC(=O)C1(CSc2nc3cc(Cl)ccc3s2)OC(=O)C(O)=C1Sc1nc2cc(Cl)ccc2s1` (stereo not drawn) [3-(5-Chloro-benzothiazol-2-ylsulfanyl)-2-(5-chloro-benzothiazol-2-ylsulfanylmethyl)-4-hydroxy-5-oxo-2,5-dihydro-furan-2-carboxylic acid ethyl ester]: no more than 30 µM.
In the case of `O=C1OC(CSc2nc3ccccc3s2)(C(=O)O)C(Sc2nc3ccccc3s2)=C1O` (stereo not drawn) [3-(Benzothiazol-2-ylsulfanyl)-2-(benzothiazol-2-ylsulfanylmethyl)-4-hydroxy-5-oxo-2,5-dihydro-furan-2-carboxylic acid] it was no more than 30 µM; in that of `CCCCCCSCC1(C(=O)OCC)OC(=O)C(O)=C1SCCCCCC` (stereo not drawn) [3-Hexylsulfanyl-2-hexylsulfanylmethyl-4-hydroxy-5-oxo-2,5-dihydro-furan-2-carboxylic acid ethyl ester], no more than 30 µM.
Next, `O=C1NC(=O)C2(OC(=O)C(O)=C2Sc2nc3ccccc3[nH]2)C(=O)N1` [4-(1H-Benzoimidazol-2-ylsulfanyl)-3-hydroxy-1-oxa-7,9-diaza-spiro[4,5]dec-3-ene-2,6,8,10-tetraone]: no more than 30 µM; `O=C1OC(CO)(CSc2nc3cc(S(=O)(=O)O)ccc3[nH]2)C(Sc2nc3cc(S(=O)(=O)O)ccc3[nH]2)=C1O` (stereo not drawn) [4-(5-sulfo-1H-benzoimidazol-2-ylsulfanyl)-5-(5-sulfo-1H-benzoimidazol-2-ylsulfanylmethyl)-3-hydroxy-5-hydroxymethyl-5H-furan-2-one]: no more than 30 µM; `CCOC(=O)C1(CSCc2ccco2)OC(=O)C(OC(C)=O)=C1SCc1ccco1` (stereo not drawn) [4-Acetoxy-3-(furan-2-ylmethylsulfanyl)-2-(furan-2-ylmethylsulfanylmethyl)-5-oxo-2,5-dihydro-furan-2-carboxylic acid ethyl ester]: no more than 30 µM.
On to `CCOC(=O)C1(CSCc2ccccc2)OC(=O)C(OC(C)=O)=C1SCc1ccccc1` (stereo not drawn) [4-Acetoxy-3-benzylsulfanyl-2-benzylsulfanylmethyl-5-oxo-2,5-dihydro-furan-2-carboxylic acid ethyl ester], for which the concentration giving a half-maximal response (EC50) is no more than 30 µM.
With `CCOC(=O)C1(CSc2nc3ccccc3n2CC)OC(=O)C(OCC)=C1Sc1nc2ccccc2n1CC` (stereo not drawn) [4-Ethoxy-3-(1-ethyl-1H-benzoimidazol-2-ylsulfanyl)-2-(1-ethyl-1H-benzoimidazol-2-ylsulfanylmethyl)-5-oxo-2,5-dihydro-furan-2-carboxylic acid ethyl ester], the concentration for a half-maximal effect (EC50) was no more than 30 µM.
In the case of `Cc1ccc2[nH]c(SC3=C(O)C(=O)OC3C(=O)OC3CC(C)CCC3C(C)C)nc2c1` (stereo not drawn) [4-Hydroxy-3-(5-methyl-1H-benzoimidazol-2-ylsulfanyl)-5-oxo-2,5-dihydro-furan-2-carboxylic acid 2-isopropyl-5-methyl-cyclohexyl ester] it was no more than 30 µM; in that of `CCOC(=O)C1(CSc2ccc3ccccc3c2)OC(=O)C(O)=C1Sc1ccc2ccccc2c1` (stereo not drawn) [4-Hydroxy-3-(naphthalen-2-ylsulfanyl)-2-(naphthalen-2-ylsulfanylmethyl)-5-oxo-2,5-dihydro-furan-2-carboxylic acid ethyl ester], no more than 30 µM.
`CCOC(=O)C1(CSc2nnnn2-c2ccccc2)OC(=O)C(O)=C1Sc1nnnn1-c1ccccc1` (stereo not drawn) [4-Hydroxy-5-oxo-3-(1-phenyl-1H-tetrazol-5-ylsulfanyl)-2-(1-phenyl-1H-tetrazol-5-ylsulfanylmethyl)-2,5-dihydro-furan-2-carboxylic acid ethyl ester]: the EC50 is no more than 30 µM.
In the case of `CCOC(=O)C1(CSCCS(=O)(=O)O)OC(=O)C(O)=C1SCCS(=O)(=O)O` (stereo not drawn) [4-Hydroxy-5-oxo-3-(2-sulfo-ethylsulfanyl)-2-(2-sulfo-ethylsulfanylmethyl)-2,5-dihydro-furan-2-carboxylic acid ethyl ester] it was no more than 30 µM; in that of `CCOC(=O)C1(CSc2ccnc3cc(C(F)(F)F)ccc23)OC(=O)C(O)=C1Sc1ccnc2cc(C(F)(F)F)ccc12` (stereo not drawn) [4-Hydroxy-5-oxo-3-(7-trifluoromethyl-quinolin-4-ylsulfanyl)-2-(7-trifluoromethyl-quinolin-4-ylsulfanylmethyl)-2,5-dihydro-furan-2-carboxylic acid ethyl ester], no more than 30 µM; in that of `CCOC(=O)C1(CSC(=S)N2CCCC2)OC(=O)C(O)=C1SC(=S)N1CCCC1` (stereo not drawn) [4-Hydroxy-5-oxo-3-(pyrrolidine-1-carbothioylsulfanyl)-2-(pyrrolidine-1-carbothioylsulfanylmethyl)-2,5-dihydro-furan-2-carboxylic acid ethyl ester], no more than 30 µM.
In the case of `CN(C)CC(=O)OCC1(CSc2nc3ccccc3[nH]2)OC(=O)C(O)=C1Sc1nc2ccccc2[nH]1` (stereo not drawn) [Dimethylamino-acetic acid 3-(1H-benzoimidazol-2-ylsulfanyl)-2-(1H-benzoimidazol-2-ylsulfanylmethyl)-4-hydroxy-5-oxo-2,5-dihydro-furan-2-ylmethyl ester] it was no more than 30 µM; in that of `CCOC(=O)[C@]1(CSCC(NC(=O)CCC(N)C(=O)O)C(=O)NCC(=O)O)OC(=O)C(O)=C1SCC(NC(=O)CCC(N)C(=O)O)C(=O)NCC(=O)O` (stereo partly drawn) [R-3-[2-(4-Amino-4-carboxy-butyrylamino)-2-(carboxymethyl-carbamoyl)-ethylsulfanyl]-2-[2-(4-amino-4-carboxy-butyrylamino)-2-(carboxymethyl-carbamoyl)ethylsulfanylmethyl]-4-hydroxy-5-oxo-2,5-dihydro-furan-2-carboxylic acid ethyl ester], no more than 30 µM.
